Measurements: ChEMBL document CHEMBL4152332, “Discovery and synthesis of novel magnolol derivatives with potent anticancer activity in non-small cell lung cancer” (Eur J Med Chem, 2018)

Assays:
Mus musculus [1] = assay: Toxicity in Balb/c mouse implanted with mouse C26 cells assessed as change in body weight at 100 mg/kg, po qd treated for 10 days and measured every 2 days (RVB = 16.4%); assay type: organism-based; settings: in vivo
HCC827 = assay: Antiproliferative activity against human HCC827 cells after 72 hrs by MTT assay; assay type: functional, cell-based; settings: HCC827, 72 h
NCI-H1975 [2] = assay: Antiproliferative activity against human NCI-H1975 cells after 72 hrs by MTT assay; assay type: functional, cell-based; settings: NCI-H1975, 72 h
NCI-H460 = assay: Antiproliferative activity against human H460 cells after 72 hrs by MTT assay; assay type: functional, cell-based; settings: NCI-H460, 72 h
[3] = Antiproliferative activity against human SPC-A1 cells after 72 hrs by MTT assay; assay type: functional, cell-based; settings: SPCA1, 72 h
NCI-H1650 = assay: Antiproliferative activity against human NCI-H1650 cells after 72 hrs by MTT assay; assay type: functional, cell-based; settings: NCI-H1650, 72 h
PC-9 = assay: Antiproliferative activity against human PC9 cells after 72 hrs by MTT assay; assay type: functional, cell-based; settings: PC-9, 72 h
NCI-H441 = assay: Antiproliferative activity against human H441 cells after 72 hrs by MTT assay; assay type: functional, cell-based; settings: NCI-H441, 72 h
NCI-H358 = assay: Antiproliferative activity against human NCI-H358 cells after 72 hrs by MTT assay; assay type: functional, cell-based; settings: NCI-H358, 72 h
[4] = Apparent aqueous solubility of the compound by HPLC analysis; assay type: physicochemical; settings: aqueous solution
NCI-H1975 [5] = assay: Cell cycle arrest in human NCI-H1975 cells assessed as accumulation at G0/G1 phase at 40 uM after 24 hrs by propidium iodide staining-based flow cytometric analysis (reference value: 56.11%); assay type: functional
NCI-H1975 [6] = assay: Cell cycle arrest in human NCI-H1975 cells assessed as accumulation at S phase at 40 uM after 24 hrs by propidium iodide staining-based flow cytometric analysis (reference value: 22.93%); assay type: functional
NCI-H1975 [7] = assay: Cell cycle arrest in human NCI-H1975 cells assessed as accumulation at G2/M phase at 40 uM after 24 hrs by propidium iodide staining-based flow cytometric analysis (reference value: 20.11%); assay type: functional
NCI-H1975 [8] = assay: Induction of apoptosis in human NCI-H1975 cells assessed as early apoptotic cells at 40 uM after 48 hrs by annexin V/FITC-propidium iodide staining-based flow cytometric method ( Rvb = 6.09%); assay type: functional
NCI-H1975 [9] = assay: Induction of apoptosis in human NCI-H1975 cells assessed as late apoptotic cells at 40 uM after 48 hrs by annexin V/FITC-propidium iodide staining-based flow cytometric method ( Rvb = 10.4%); assay type: functional
NCI-H1975 [10] = assay: Induction of apoptosis in human NCI-H1975 cells assessed as necrotic cells at 40 uM after 48 hrs by annexin V/FITC-propidium iodide staining-based flow cytometric method ( Rvb = 1.01%); assay type: functional
NCI-H1975 [11] = assay: Induction of apoptosis in human NCI-H1975 cells assessed as viable cells at 40 uM after 48 hrs by annexin V/FITC-propidium iodide staining-based flow cytometric method ( Rvb = 82.5%); assay type: functional; settings: NCI-H1975, 48 h, read-out: Activity
[12] = Antitumor activity against mouse C26 cells implanted in Balb/c mouse assessed as tumor growth inhibition at 100 mg/kg, po qd and measured every 2 days relative to control; assay type: functional; settings: 48 h, read-out: TGI
Mus musculus [13] = assay: Toxicity in Balb/c mouse xenografted with human NCI-H1975 cells assessed as change in body weight at 100 mg/kg, po qd treated for 18 days and measured every 2 days after compound dosing ( Rvb = 2.89%); assay type: organism-based; settings: in vivo
Mus musculus [14] = assay: Toxicity in Balb/c mouse xenografted with human NCI-H1975 cells assessed as change in body weight at 20 mg/kg, iv treated every 2 days for 9 days and measured every 2 days after compound dosing ( Rvb = 2.89%); assay type: organism-based; settings: in vivo
Mus musculus [15] = assay: Toxicity in Balb/c mouse xenografted with human NCI-H1975 cells assessed as mouse death at 100 mg/kg, po qd treated for 18 days and measured every 2 days after compound dosing; assay type: organism-based; settings: in vivo
Mus musculus [16] = assay: Toxicity in Balb/c mouse xenografted with human NCI-H1975 cells assessed as mouse death at 20 mg/kg, iv treated every 2 days for 9 days and measured every 2 days after compound dosing; assay type: organism-based; settings: in vivo
NCI-H1975 [17] = assay: Antitumor activity against human NCI-H1975 cells xenografted in Balb/c mouse assessed as change in tumor mass at 100 mg/kg, po qd treated for 18 days and measured every 2 days after compound dosing relative to control; assay type: functional
NCI-H1975 [18] = assay: Antitumor activity against human NCI-H1975 cells xenografted in Balb/c mouse assessed as change in tumor mass at 20 mg/kg, iv treated every 2 days for 9 days and measured every 2 days after compound dosing relative to control; assay type: functional
Mus musculus [19] = assay: Toxicity in Balb/c mouse implanted with mouse C26 cells assessed as mouse death at 100 mg/kg, po qd treated for 10 days; assay type: organism-based; settings: in vivo, 240 h

C=CCc1ccc(O)c(-c2ccc(O)c(CC=C)c2)c1 [HONOKIOL]
Activity (Mus musculus [1]): 6.92% | IC50 (HCC827): 33.9 µM | IC50 (NCI-H1975 [2]): 30.2 µM | IC50 (NCI-H460): 38.5 µM | IC50 [3]: 39 µM | IC50 (NCI-H1650): 37.4 µM | IC50 (PC-9): 36.7 µM | IC50 (NCI-H441): 33.3 µM | IC50 (NCI-H358): 31.6 µM | solubility [4]: < 10 µg/mL | Activity (NCI-H1975 [5]): 67.42% | Activity (NCI-H1975 [6]): 6.54% | Activity (NCI-H1975 [7]): 18.55% | Activity (NCI-H1975 [8]): 43.8% | Activity (NCI-H1975 [9]): 7.97% | Activity (NCI-H1975 [10]): 0.87% | viability at 40 µM (NCI-H1975 [11]): 47.4% | inhibition in vivo at 100 mg/kg [12]: 16.7% | Activity (Mus musculus [13]): 1.38% | Activity (Mus musculus [14]): 6.1% | Activity (Mus musculus [15]): Non-Toxic | Activity (Mus musculus [16]): Non-Toxic | Activity (NCI-H1975 [17]): 11.8% | Activity (NCI-H1975 [18]): 73% | Activity (Mus musculus [19]): Non-Toxic
